target: S1P5 (Homo sapiens, UniProt Q9H228); test: [35S]-GTPγS functional binding assay on CHO-S1P5 membranes; type: biochemical; settings: membranes of CHO cells expressing recombinant S1P5; measure of S1P5 agonism
Description: CHO cells expressing recombinant S1P5 receptors were cultured in 500 cm^2 culture trays and, once confluent, rinsed and detached with cell-lifting buffer (10 mM HEPES, 154 mM NaCl, 6.85 mM EDTA, pH 7.4). Cells were then pelleted by centrifugation, resuspended, and homogenized in membrane preparation buffer (10 mM HEPES and 10 mM EDTA, pH 7.4) using a Polytron PT 1200E homogenizer (Kinematica, Luzern, Switzerland). Cellular proteins were pelleted by centrifugation at 48,000×g at 4° C. for 30 minutes. The resulting supernatant was discarded, and the pellet was re-suspended again in membrane preparation buffer, homogenized for a second time, and then centrifuged again as described above. The final cellular protein pellet was suspended in ice cold resuspension buffer (10 mM HEPES and 0.1 mM EDTA, pH 7.4), divided into aliquots, and stored at −80° C. until use.
Functional binding assays for [^35S]-GTPγS were performed in 96-well non-binding surface plates with a final volume of 200 μL. The test compounds were serially diluted in DMSO and added to assay plates using a Tecan D300E digital printer with a total volume of 0.4 μL. The control sphingosine-1-phosphate (S1P) was prepared separately by preparing a 400 μM stock solution from a 100 nmol pellet of SIP in 10 mM Na2CO3 with 2% β-cyclodextrin. The serial dilution of S1P was done using complete assay buffer (20 mM HEPES, 10 mM MgCl2, 100 mM NaCl, 1 mM EDTA, 0.1% fatty acid free bovine serum albumin (BSA), and 30 μg/mL saponin, pH 7.4) and transferred to wells already containing 0.4 μL DMSO. All the wells were then loaded to a total volume of 40 μL of complete assay buffer, except the non-specific binding (NSB) wells. For NSB wells, 40 μL/well of 50 μM GTPγS (Sigma Aldrich, cat #G8634, St. Louis, MO) was added to wells containing 0.4 μL of DMSO. The assay was started by the addition of 120 μL/well of CHO—S1P receptor membrane solution containing 40 μg/mL of membrane protein, 16.67 μM guanosine diphosphate (GDP; Sigma Aldrich, cat #G7127, St. Louis, MO), and 2.5 mg/mL of WGA PVT SPA beads in complete buffer. Assay plates were then sealed and incubated at room temperature with gentle agitation for 30 minutes. Next, 40 μL/well of 1 nM of [^35S]-GTPγS (PerkinElmer, cat #NEG030X250UC, Waltham, MA) in basic assay buffer (20 mM HEPES, 10 mM MgCl2, 100 mM NaCl, and 1 mM EDTA, pH7.4) was added to the assay plates to yield a final concentration of 200 pM and the plates were further incubated for 40 minutes at room temperature with gentle agitation. The assay was terminated by centrifugation of the plates at 1000 rpm for 3 minutes using an Eppendorf 5810R centrifuge (Eppendorf, Hamburg, Germany) and G protein bound radioactivity was quantitated using a MicroBeta2 microplate scintillation counter (PerkinElmer, Waltham, MA). As G protein bound radioactivity directly correlates to receptor activation and coupling to the G protein, this assay is a measure of S1P5 agonism.

Sequence of S1P5 (Q9H228 whole entry, species assumed): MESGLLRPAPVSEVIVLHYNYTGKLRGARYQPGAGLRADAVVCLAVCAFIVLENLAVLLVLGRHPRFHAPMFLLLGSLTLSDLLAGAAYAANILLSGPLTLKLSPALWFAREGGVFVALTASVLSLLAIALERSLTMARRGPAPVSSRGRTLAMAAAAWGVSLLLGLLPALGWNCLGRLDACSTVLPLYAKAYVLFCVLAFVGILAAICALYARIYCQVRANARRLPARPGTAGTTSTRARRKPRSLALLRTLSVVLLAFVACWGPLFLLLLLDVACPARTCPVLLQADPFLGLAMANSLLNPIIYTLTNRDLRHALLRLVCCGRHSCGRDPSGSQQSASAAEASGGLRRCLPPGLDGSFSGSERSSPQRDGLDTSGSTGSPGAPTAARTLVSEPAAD

Compound	EC50
Cc1cc(C2CN(c3c(Cl)cccc3Cl)C2)cc(C)c1CN1CCC(C(=O)N(C)CC(C)C)CC1 [Compound 23, 1-(4-(1-(2,6-dichlorophenyl)-azetidin-3-yl)-2,6-dimethyl-benzyl)-N-isobutyl-N-meth-ylpiperidine-4-carboxamide]	1 to 10 µM
Cc1cc(C2CN(c3c(Cl)cccc3Cl)C2)cc(C)c1CN1CCC(C(=O)NCC2CCCCC2)CC1 [Compound 18, N-(cyclohexylmethyl)-1-(4-(1-(2,6-dichlorophenyl)-azetidin-3-yl)-2,6-dimethyl-benzyl)piperidine-4-carbox-amide]	1 to 10 µM
Cc1cc(C2CN(c3c(Cl)cccc3Cl)C2)cc(C)c1CN1CCC(C(=O)N2CCCCC2)CC1 [Compound 26, (1-(4-(1-(2,6-dichlorophenyl)-azetidin-3-yl)-2,6-dimethyl-benzyl)-piperidin-4-yl)(piper-idin-1-yl)methanone]	1 to 10 µM
Cc1cc(C2CN(c3c(Cl)cccc3Cl)C2)cc(C)c1CN1CCC(C(=O)NCCC(C)C)CC1 [Compound 21, 1-(4-(1-(2,6-dichlorophenyl)-azetidin-3-yl)-2,6-dimethyl-benzyl)-N-isopentyl-piper-idine-4-carboxamide]	1 to 10 µM
Cc1cc(C2CN(c3c(Cl)cccc3Cl)C2)cc(C)c1CN1CCC(C(=O)NCCN2CCCC2)CC1 [Compound 19, 1-(4-(1-(2,6-dichlorophenyl)-azetidin-3-yl)-2,6-dimethyl-benzyl)-N-(2-(pyrrolidin-1-yl)ethyl)-piperidine-4-carbox-amide]	1 to 10 µM
Cc1cc(C2CN(c3c(Cl)cccc3Cl)C2)cc(C)c1CN1CCC(C(=O)N2CCC(N(C)C)CC2)CC1 [Compound 22, (1-(4-(1-(2,6-dichlorophenyl)-azetidin-3-yl)-2,6-dimethyl-benzyl)piperidin-4-yl)(4-(dimethylamino)piperidin-1-yl)methanone]	1 to 10 µM
Cc1cc(C2CN(c3c(Cl)cccc3Cl)C2)cc(C)c1CN1CCC(C(=O)NC2CCC(N(C)C)CC2)CC1 (centres unmarked) [Compound 20, 1-(4-(1-(2,6-dichlorophenyl)-azetidin-3-yl)-2,6-dimethyl-benzyl)-N-(4-(dimethyl-amino)-cyclohexyl)piper-idine-4-carboxamide]	1 to 10 µM
Cc1cc(C2CN(c3c(Cl)cccc3Cl)C2)cc(C)c1CN1CCC(C(=O)N(C)C2CC2)CC1 [Compound 25, N-cyclopropyl-1-(4-(1-(2,6-dichlorophenyl)-azetidin-3-yl)-2,6-dimethylbenzyl)-N-methylpiperidine-4-carbox-amide]	1 to 10 µM
Cc1cc(C2CN(c3c(Cl)cccc3Cl)C2)cc(C)c1CN1CCC(C(=O)N2CCC(O)C2)CC1 (centres unmarked) [Compound 24, (1-(4-(1-(2,6-dichlorophenyl)-azetidin-3-yl)-2,6-dimethyl-benzyl)-piperidin-4-yl)(3-hydroxypyrrolidin-1-yl)-methanone]	1 to 10 µM
Cc1cc(C2CN(c3c(Cl)cccc3Cl)C2)cc(C)c1CN1CCC(C(=O)NC2CCCC2)CC1 [Compound 15, N-cyclopentyl-1-(4-(1-(2,6-dichlorophenyl)-azetidin-3-yl)-2,6-dimethylbenzyl)-piperidine-4-carboxamide]	1 to 10 µM
Cc1cc(C2CN(c3c(Cl)cccc3Cl)C2)cc(C)c1CN1CCC(C(=O)NC2CCC(O)CC2)CC1 (centres unmarked) [Compound 7, 1-(4-(1-(2,6-dichlorophenyl)-azetidin-3-yl)-2,6-dimethyl-benzyl)-N-(4-hydroxycyclo-hexyl)-piperidine-4-carbox-amide]	0.1 to 1 µM
Cc1cc(C2CN(c3c(Cl)cccc3Cl)C2)cc(C)c1CN1CCC(C(=O)N(C)C(C)C)CC1 [Compound 16, 1-(4-(1-(2,6-dichlorophenyl)-azetidin-3-yl)-2,6-dimethyl-benzyl)-N-isopropyl-N-meth-yl-piperidine-4-carboxamide]	1 to 10 µM
Cc1cc(C2CN(c3c(Cl)cccc3Cl)C2)cc(C)c1CN1CCC(C(=O)NC2CCCCC2)CC1 [Compound 17, N-cyclohexyl-1-(4-(1-(2,6-dichlorophenyl)azetidin-3-yl)-2,6-dimethylbenzyl)-piperidine-4-carboxamide]	1 to 10 µM

Next, values leading:

EC50	Compound
0.1 to 1 µM	Cc1cc(C2CN(c3c(Cl)cccc3Cl)C2)cc(C)c1CN1CCC(C(=O)N(C)CCO)CC1 [Compound 11, 1-(4-(1-(2,6-dichlorophenyl)-azetidin-3-yl)-2,6-dimethyl-benzyl)-N-(2-hydroxyethyl)-N-methylpiperidine-4-carbox-amide]
0.01 to 0.1 µM	Cc1cc(C2CN(c3c(Cl)cccc3Cl)C2)cc(C)c1CN1CCC(C(=O)NCC2CC2)CC1 [Compound 5, N-(cyclopropylmethyl)-1-(4-(1-(2,6-dichlorophenyl)-azetidin-3-yl)-2,6-dimethyl-benzyl)piperidine-4-carbox-amide]
0.001 to 0.01 µM	Cc1cc(C2CN(c3c(Cl)cccc3Cl)C2)cc(C)c1CN1CCC(C(=O)N(C)C)CC1 [Compound 2, 1-(4-(1-(2,6-dichlorophenyl)-azetidin-3-yl)-2,6-dimethyl-benzyl)-N,N-dimethylpiper-idine-4-carboxamide]
0.1 to 1 µM	Cc1cc(C2CN(c3c(Cl)cccc3Cl)C2)cc(C)c1CN1CCC(C(=O)N2CCC(O)CC2)CC1 [Compound 12, (1-(4-(1-(2,6-dichlorophenyl)-azetidin-3-yl)-2,6-dimethyl-benzyl)-piperidin-4-yl)(4-hydroxy-piperidin-1-yl)-methanone]
0.1 to 1 µM	COC1CCN(C(=O)C2CCN(Cc3c(C)cc(C4CN(c5c(Cl)cccc5Cl)C4)cc3C)CC2)CC1 [Compound 14, (1-(4-(1-(2,6-dichlorophenyl)-azetidin-3-yl)-2,6-dimethyl-benzyl)-piperidin-4-yl)(4-methoxy-piperidin-1-yl)-methanone]
0.1 to 1 µM	Cc1cc(C2CN(c3c(Cl)cccc3Cl)C2)cc(C)c1CN1CCC(C(=O)N2CCOCC2)CC1 [Compound 9, (1-(4-(1-(2,6-dichlorophen-yl)azetidin-3-yl)-2,6-dimeth-ylbenzyl)-piperidin-4-yl)-(morpholino)methanone]
0.001 to 0.01 µM	CNC(=O)C1CCN(Cc2c(C)cc(C3CN(c4c(Cl)cccc4Cl)C3)cc2C)CC1 [Compound 1, 1-(4-(1-(2,6-dichlorophenyl)-azetidin-3-yl)-2,6-dimethyl-benzyl)-N-methylpiperidine-4-carboxamide]
0.01 to 0.1 µM	Cc1cc(C2CN(c3c(Cl)cccc3Cl)C2)cc(C)c1CN1CCC(C(=O)NC2CCC2)CC1 [Compound 6, N-cyclobutyl-1-(4-(1-(2,6-dichlorophenyl)azetidin-3-yl)-2,6-dimethylbenzyl)-piperidine-4-carboxamide]
0.1 to 1 µM	Cc1cc(C2CN(c3c(Cl)cccc3Cl)C2)cc(C)c1CN1CCC(C(=O)N(C)CCN(C)C)CC1 [Compound 13, 1-(4-(1-(2,6-dichlorophenyl)-azetidin-3-yl)-2,6-dimethyl-benzyl)-N-(2-(dimethyl-amino)ethyl)-N-methylpiper-idine-4-carboxamide]
0.1 to 1 µM	Cc1cc(C2CN(c3c(Cl)cccc3Cl)C2)cc(C)c1CN1CCC(C(=O)NCC(C)C)CC1 [Compound 10, 1-(4-(1-(2,6-dichlorophenyl)-azetidin-3-yl)-2,6-dimethyl-benzyl)-N-isobutylpiperidine-4-carboxamide]
0.1 to 1 µM	Cc1cc(C2CN(c3c(Cl)cccc3Cl)C2)cc(C)c1CN1CCC(C(=O)N2CCN(C)CC2)CC1 [Compound 8, (1-(4-(1-(2,6-dichlorophen-yl)azetidin-3-yl)-2,6-dimeth-ylbenzyl)-piperidin-4-yl)(4-methyl-piperazin-1-yl)-methanone]
0.01 to 0.1 µM	Cc1cc(C2CN(c3c(Cl)cccc3Cl)C2)cc(C)c1CN1CCC(C(=O)NC2CC2)CC1 [Compound 4, N-cyclopropyl-1-(4-(1-(2,6-dichlorophenyl)-azetidin-3-yl)-2,6-dimethylbenzyl)-piperidine-4-carboxamide]
0.001 to 0.01 µM	COCCNC(=O)C1CCN(Cc2c(C)cc(C3CN(c4c(Cl)cccc4Cl)C3)cc2C)CC1 [Compound 3, 1-(4-(1-(2,6-dichlorophenyl)-azetidin-3-yl)-2,6-dimethyl-benzyl)-N-(2-methoxyethyl)-piperidine-4-carboxamide]
